Experimental data: US20250100996A1, “HETEROCYCLOALKYL AND HETEROARYL COMPOUNDS AND PHARMACEUTICAL COMPOSITIONS THAT MODULATE IKZF2” (Plexium, Inc., priority 2021, published 2025)

Experiments:
[1] = molecular target: T1, human E3 ligase component cereblon (CRBN) (Homo sapiens, UniProt Q96SW2); assay: Cereblon (CRBN) target engagement, NanoBRET TE Intracellular E3 Ligase Assay in transfected HEK-293T cells; conditions: read-out: CRBN Binding EC50
T1 construct: host or cells: HEK293T
Procedure: HEK293T cells were harvested ca. 75% confluent with trypsin and plated (500,000 cells/well) in a 6-well tissue culture plate in 2 mL of Dulbecco's Modified Eagle Medium (DMEM)^+10% Fetal Bovine Serum (FBS) and incubated overnight at 37° C.
The NanoLuc-CRBN fusion vector (Nluc-CRBN; Promega) contains the coding region of human E3 ligase component cereblon (CRBN) fused to the C-terminus of the NanoLuc luciferase coding region. A mixture of 10 ng Nluc-CRBN and 990 ng DDB1 Expression Vector (Promega) was added to 125 μL Opti-Minimum Essential Medium (Opti-MEM™; Thermo Fisher) along with […] P3000 reagent (Thermo Fisher) in a 1.5 mL epppendorf tube. This solution was added to Lipofectamine 3000 transfection reagent (5 μL; Thermo Fisher) in Opti-MEM (125 μL), mixed well, and incubated for 15 minutes at room temperature. The transfection mixture was added dropwise to cells and incubated overnight at 37° C., 5% CO2. Following transfection, cells were washed once with PBS, and trypsin (250 μL) was added and incubated 30-45 see to dislodge cells. Complete media (2 mL) was added to resuspend cells to form a single cell suspension. Cells were centrifuged at 320×g for 5 min at room temperature, the supernatant was removed, and the cell pellet resuspended in Opti-MEM (3 mL; wash step repeated ×2). After final resuspension in 5 mL Opti-MEM, cells were counted and resuspended at 200,000 cells/mL in Opti-MEM.
Cereblon target engagement was monitored by Bioluminescence Resonance Energy Transfer (BRET) in transfected HEK-293T cells using the NanoBRET TE Intracellular E3 Ligase Assay (Promega). Briefly, 384-well plates (white opaque plates, Corning 3574, low binding surface) were seeded with transfected HEK-293T cells (38 μL/well). 2 μL of 10 μM CRBN tracer (diluted 1:5 in Tracer Dilution Buffer) was added to each well. Plates were centrifuged at 320×g for 1 min at room temperature. Test compounds were added in a 11-point dilution series (typically 10 μM to 100 pM) using a TECAN D300e Digital Dispenser. Plates were shaken for 2 minutes on a microplate shaker to mix compounds. Plates were centrifuged at 320×g for 1 min at room temperature, and subsequently incubated for 2 hours at 37° C.
After incubation, plates were allowed to cool to room temperature for 15 minutes. 20 μL of 3× Complete NanoBRET™ Nano-Glo® Substrate plus Inhibitor Solution (Promega, 1:166 Substrate and 1:500 dilution of Extracellular NanoLuc® Inhibitor diluted in Opti-MEM) were added to each well. Plates were incubated with shaking at room temperature for 3 minutes covered with foil. Plates were read on a CLARIOstar microplate reader (BMG LabTech), measuring at 450 nm (donor emission) and 610 nm (acceptor emission). The IC50 values were determined by regression to best fit four-parameter logistic curves using GraphPad Prism.

IKZF2 (Helios) [2] = molecular target: T2, IKZF2 (Helios) (Homo sapiens, UniProt Q9UKS7); assay: IKZF2 reporter degradation assay (HEK 293T IKZF2-mNeonGreen reporter cell line); assay type: cell-based; conditions: HEK 293T IKZF2-mNeonGreen reporter, 24 hours incubation
T2 construct: Leu-Asp junction (codons ctcgac before the linker); mScarlet (behind P2A) (C, cleaved yes); expressed in transfected cells
T2 sequence (Q9UKS7 whole entry): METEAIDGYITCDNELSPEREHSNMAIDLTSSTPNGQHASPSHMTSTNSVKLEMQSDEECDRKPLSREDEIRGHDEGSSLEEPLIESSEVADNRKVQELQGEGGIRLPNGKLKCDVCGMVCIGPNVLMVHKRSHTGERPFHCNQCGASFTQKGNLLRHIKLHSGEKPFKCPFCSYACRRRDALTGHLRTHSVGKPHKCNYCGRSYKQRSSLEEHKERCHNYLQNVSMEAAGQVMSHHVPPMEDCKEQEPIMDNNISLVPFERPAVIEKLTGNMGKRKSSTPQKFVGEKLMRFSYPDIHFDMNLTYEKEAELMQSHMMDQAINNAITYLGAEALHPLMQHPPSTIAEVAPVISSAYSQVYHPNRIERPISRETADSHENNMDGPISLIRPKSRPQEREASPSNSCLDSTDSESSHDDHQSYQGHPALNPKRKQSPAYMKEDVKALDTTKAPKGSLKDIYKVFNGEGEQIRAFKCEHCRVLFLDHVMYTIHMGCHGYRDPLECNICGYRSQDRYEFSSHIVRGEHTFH
T2 sequence (Q96SW2 whole entry, further chain): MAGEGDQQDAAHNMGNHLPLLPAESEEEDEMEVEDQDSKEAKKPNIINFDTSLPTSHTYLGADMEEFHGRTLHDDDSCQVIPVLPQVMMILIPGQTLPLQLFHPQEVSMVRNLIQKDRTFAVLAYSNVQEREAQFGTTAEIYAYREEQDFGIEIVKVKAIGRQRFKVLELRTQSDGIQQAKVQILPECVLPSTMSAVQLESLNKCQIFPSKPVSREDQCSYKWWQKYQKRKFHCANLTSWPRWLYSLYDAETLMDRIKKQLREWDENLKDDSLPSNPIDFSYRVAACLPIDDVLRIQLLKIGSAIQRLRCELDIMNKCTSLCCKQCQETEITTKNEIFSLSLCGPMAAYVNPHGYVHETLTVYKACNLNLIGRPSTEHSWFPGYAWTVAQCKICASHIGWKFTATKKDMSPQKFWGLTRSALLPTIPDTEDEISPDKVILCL
T2 sequence (Q16531 whole entry partner): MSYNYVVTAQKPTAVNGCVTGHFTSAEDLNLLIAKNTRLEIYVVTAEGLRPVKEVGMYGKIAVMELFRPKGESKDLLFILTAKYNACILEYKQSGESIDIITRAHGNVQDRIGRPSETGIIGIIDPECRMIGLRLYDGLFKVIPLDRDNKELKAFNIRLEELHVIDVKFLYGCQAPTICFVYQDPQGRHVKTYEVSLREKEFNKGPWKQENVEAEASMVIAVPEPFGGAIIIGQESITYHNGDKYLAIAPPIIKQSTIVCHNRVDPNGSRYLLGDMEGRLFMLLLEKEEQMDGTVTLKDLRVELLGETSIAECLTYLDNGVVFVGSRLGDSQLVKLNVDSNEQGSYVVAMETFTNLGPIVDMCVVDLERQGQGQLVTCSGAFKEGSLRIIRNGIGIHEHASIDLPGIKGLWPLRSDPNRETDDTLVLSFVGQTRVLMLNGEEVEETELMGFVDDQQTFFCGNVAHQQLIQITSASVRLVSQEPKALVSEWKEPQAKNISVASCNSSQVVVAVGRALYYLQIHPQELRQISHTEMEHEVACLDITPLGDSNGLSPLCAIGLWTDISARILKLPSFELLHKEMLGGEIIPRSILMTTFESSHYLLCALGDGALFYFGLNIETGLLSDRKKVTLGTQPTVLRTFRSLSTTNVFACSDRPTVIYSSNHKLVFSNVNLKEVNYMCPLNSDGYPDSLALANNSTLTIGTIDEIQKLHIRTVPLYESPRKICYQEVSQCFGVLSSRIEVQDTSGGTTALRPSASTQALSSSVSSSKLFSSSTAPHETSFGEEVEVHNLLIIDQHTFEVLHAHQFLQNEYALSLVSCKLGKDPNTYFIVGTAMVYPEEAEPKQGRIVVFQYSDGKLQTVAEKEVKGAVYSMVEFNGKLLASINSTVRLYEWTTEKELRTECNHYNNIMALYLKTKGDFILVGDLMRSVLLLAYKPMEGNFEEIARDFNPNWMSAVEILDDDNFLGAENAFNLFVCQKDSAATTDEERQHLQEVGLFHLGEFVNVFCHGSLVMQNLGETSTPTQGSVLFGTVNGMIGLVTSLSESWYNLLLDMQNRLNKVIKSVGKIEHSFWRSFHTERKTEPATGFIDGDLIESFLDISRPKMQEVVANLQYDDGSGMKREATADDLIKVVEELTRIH
Description: (§1) Polycistronic plasmids were constructed for the mammalian expression of fluorescent reporter fusions of human transcription factors IKZF1 (Ikaros), IKZF2 (Helios), and IKZF3 (Aiolos). The respective protein sequences had their C-terminal end joined to a GGGGS linker repeated three times followed by mNeonGreen, P2A sequence, and mScarlet. The DNA sequences of the open reading frames are as follows:
(§2) IKZF1, IKZF2, and IKZF3 constructs were cloned into the UCOE Hygromycin expression vectors (Millipore Sigma). Reporter constructs were transfected using cationic lipid reagents into adherent HEK 293T cells and stable integrants were selected by treatment with 200 μg/mL hygromycin B. Clonal populations were obtained from the population of stable integrants either by limiting dilution or fluorescence activated cell sorting.
(§3) The clonal stable cell lines were maintained under constant 200 μg/mL hygromycin B selection while being passaged for use in the degradation assays. […] The fluorescence intensity of the IKZF1/2/3-mNeonGreen (FITC channel) and mScarlet (PE channel) reporters were routinely analyzed by flow cytometry to confirm consistent expression levels between experiments.
(§4) The IKZF1/IKZF2/IKZF3 degradation assays were carried out by harvesting the HEK 293T reporter cell lines and resuspending the cells in media formulated for reduced background fluorescence (FluoroBrite; Thermo Fisher). The respective cell lines were seeded at a density of 4000 cells/well into black-walled 384-well optical grade assay tissue culture plates. The cells were incubated overnight at 37° C. to allow for attachment to the assay plate. Dilutions of the compounds were prepared in DMSO from 10 mM compound stocks. The assay plates were treated with appropriate concentrations of the compounds by dispensing the DMSO dilutions in quadruplicate wells with an upper limit of 0.5% final DMSO.
(§5) After 24 hours incubation with the compounds, the assay plates were imaged on an ImageXpress Pico microscopy system (cells maintained at 37° C. during imaging) to obtain the fluorescent readouts. The assay plates were imaged in the FITC and Tetramethylrhodamine (TRITC) channels to obtain the mNeonGreen fluorescence intensity (reporter degradation data) and mScarlet fluorescence intensity (for cell segmentation). 293T-IKZF1 and 293T-IKZF3 reporter cell lines were imaged with exposures of 500 milliseconds (ms) for both FITC and TRITC channels, while the 293T-IKZF2 reporter cell line was imaged with exposures of 1000 ms for FITC and 1250 ms for TRITC. The resulting data was analyzed with Cell Reporter Xpress software using the 2-channel cell scoring analysis with a “percent positive” readout. The TRITC channel was selected for the “nuclei” segmentation with a threshold of 20 while the FITC channel was selected for the “Marker 1” segmentation and a threshold of 100 for the IKZF1 and IKZF3 reporter lines. […] The minimum segmentation width was set to 6 micrometers and the maximum segmentation width was set to 15 micrometers for all cell lines. The DC50 calculations were determined by regression to best fit four-parameter logistic curves using GraphPad Prism.

IKZF3 (Aiolos) = molecular target: T3, IKZF3 (Aiolos) (Homo sapiens, UniProt Q9UKT9); assay: IKZF3 reporter degradation assay (HEK 293T IKZF3-mNeonGreen reporter cell line); assay type: cell-based; conditions: HEK 293T IKZF3-mNeonGreen reporter, 24 hours incubation
T3 construct: Leu-Asp junction (codons ctcgac before the linker); mScarlet (behind P2A) (C, cleaved yes); expressed in transfected cells
T3 sequence (Q96SW2 whole entry partner): as the sequence (Q96SW2 whole entry, further chain) above
T3 sequence (Q16531 whole entry partner): as the sequence (Q16531 whole entry partner) above
T3 sequence (Q9UKT9 whole entry): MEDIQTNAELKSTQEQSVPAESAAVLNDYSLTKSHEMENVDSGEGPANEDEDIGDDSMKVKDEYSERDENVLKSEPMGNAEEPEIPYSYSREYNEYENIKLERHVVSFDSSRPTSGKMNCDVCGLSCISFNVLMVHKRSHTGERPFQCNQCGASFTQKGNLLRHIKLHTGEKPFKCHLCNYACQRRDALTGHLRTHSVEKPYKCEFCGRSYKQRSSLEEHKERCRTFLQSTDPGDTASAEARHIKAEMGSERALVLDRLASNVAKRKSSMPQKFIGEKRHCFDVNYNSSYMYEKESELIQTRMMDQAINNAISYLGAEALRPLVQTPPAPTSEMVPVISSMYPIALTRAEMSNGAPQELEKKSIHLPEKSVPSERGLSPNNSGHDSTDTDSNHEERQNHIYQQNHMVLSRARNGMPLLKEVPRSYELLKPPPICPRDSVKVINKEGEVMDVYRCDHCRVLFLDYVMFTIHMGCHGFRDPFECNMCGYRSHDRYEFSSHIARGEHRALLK
Description: as §1, §2, §3, §4, §5

IKZF2 (Helios) [3] = molecular target: T4, IKZF2 (Helios) (Homo sapiens, UniProt Q96SW2+Q9UKS7); assay: IKZF2 reporter degradation assay (HEK 293T IKZF2-mNeonGreen reporter cell line); assay type: cell-based; conditions: HEK-293T, 24 h, @ 1 μM, HEK 293T IKZF2-mNeonGreen reporter, 24 hours incubation
T4 construct: Leu-Asp junction (codons ctcgac before the linker); mScarlet (behind P2A) (C, cleaved yes); expressed in transfected cells
T4 sequence (Q9UKS7 whole entry): as the sequence (Q9UKS7 whole entry) above
T4 sequence (Q96SW2 whole entry): as the sequence (Q96SW2 whole entry, further chain) above
T4 sequence (Q16531 whole entry partner): as the sequence (Q16531 whole entry partner) above
Description: as §1, §2, §3, §4, §5

T1 sequence (Q96SW2 whole entry): as the sequence (Q96SW2 whole entry, further chain) above
T1 sequence (Q16531 whole entry partner): as the sequence (Q16531 whole entry partner) above

Row | EC50 [1] | DC50 (IKZF2 (Helios) [2]) | DC50 (IKZF3 (Aiolos)) | inhibition at 1 µM (IKZF2 (Helios) [3]) | Compound
1 | 5 nM | > 30000 nM | > 30000 nM |  | O=C1CCC(N2Cc3cc(O[C@@H]4CCCC[C@@H]4N4CC(c5ncc(Br)cn5)C4)ccc3C2=O)C(=O)N1 (mixture of isomers) [Compound 138-B, Rac-3-(5-(((cis)-2-(3-(5-bromopyrimidin-2-yl)azetidin-1-yl)cyclohexyl)oxy)-1-oxoisoindolin-2-yl)piperidine-2,6-dione]
2 | 29 nM | > 30000 nM | > 30000 nM |  | O=C1CCC(N2Cc3cc(O[C@@H]4CCCC[C@H]4N4CC(c5ccc(C(F)(F)F)nc5)C4)ccc3C2=O)C(=O)N1 (single isomer, unassigned) [Compound 124-B]
3 | > 10000 nM | > 30000 nM | > 30000 nM |  | O=C1NC(=O)C2(N3Cc4cc(OC5CCCC5N5CC(c6ccncc6)C5)ccc4C3=O)CC1C2 (stereo not shown) [Compound 148-B, 1-(1-oxo-5-((2-(3-(pyridin-4-yl)azetidin-1-yl)cyclopentyl)oxy)isoindolin-2-yl)-3-azabicyclo[3.1.1]heptane-2,4-dione]
4 | 64 nM | 177 nM |  | 21.7% | O=C1CCC(N2Cc3cc(O[C@H]4CCCC[C@H]4N4CC(c5cncc(Cl)c5)C4)ccc3C2=O)C(=O)N1 (single isomer, unassigned) [Compound 115-B]
5 | 34 nM | > 30000 nM | > 30000 nM |  | O=C1CCC(N2Cc3cc(O[C@H]4CCCC[C@@H]4N4CC(c5ncncc5Cl)C4)ccc3C2=O)C(=O)N1 (mixture of isomers) [Compound 140-B, Rac-3-(5-(((trans)-2-(3-(5-chloropyrimidin-4-yl)azetidin-1-yl)cyclohexyl)oxy)-1-oxoisoindolin-2-yl)piperidine-2,6-dione]
6 | 41 nM | > 30000 nM | > 30000 nM |  | N#Cc1cc(C2CN([C@H]3CCCC[C@@H]3Oc3ccc4c(c3)CN(C3CCC(=O)NC3=O)C4=O)C2)ccn1 (mixture of isomers) [Compound 180-B, Rac-4-(1-((trans)-2-((2-(2,6-dioxopiperidin-3-yl)-1-oxoisoindolin-5-yl)oxy)cyclohexyl)azetidin-3-yl)picolinonitrile]
7 | 37 nM | > 30000 nM | > 30000 nM |  | O=C1CCC(N2Cc3cc(OC4CCCC4N4CC(c5ccc(C(F)(F)F)nc5)C4)ccc3C2=O)C(=O)N1 (stereo not shown) [Compound 141-B, 3-(1-oxo-5-((2-(3-(6-(trifluoromethyl)pyridin-3-yl)azetidin-1-yl)cyclopentyl)oxy)isoindolin-2-yl)piperidine-2,6-dione]
8 | 30 nM | 62 nM |  | 29.7% | O=C1CCC(N2Cc3cc(O[C@H]4CCCC[C@@H]4N4CC(c5ccnc6[nH]ccc56)C4)ccc3C2=O)C(=O)N1 (single isomer, unassigned) [Compound 113-B]
9 | 11 nM | > 30000 nM |  |  | O=C1CCC(N2Cc3cc(O[C@@H]4CCCC[C@@H]4N4CC(c5ccc(Cl)cn5)C4)ccc3C2=O)C(=O)N1 (single isomer, unassigned) [Compound 101-B]
10 | 55 nM | 111 nM |  | 41.3% | O=C1CCC(N2Cc3cc(O[C@H]4CCCC[C@H]4N4CC(c5ccc(Cl)cn5)C4)ccc3C2=O)C(=O)N1 (single isomer, unassigned) [Compound 98-B]
11 | 13 nM | > 30000 nM |  |  | O=C1CCC(N2Cc3cc(O[C@H]4CCCC[C@H]4N4CC(c5ncc(C(F)(F)F)cn5)C4)ccc3C2=O)C(=O)N1 (single isomer, unassigned) [Compound 122-B]
12 | 5 nM | > 30000 nM |  |  | O=C1CCC(N2Cc3cc(O[C@H]4CCCC[C@H]4N4CC(c5ncc(C(F)(F)F)cn5)C4)ccc3C2=O)C(=O)N1 (single isomer, unassigned) [Compound 121-B]
13 | 15 nM | > 30000 nM | > 30000 nM |  | O=C1CCC(N2Cc3cc(O[C@H]4CCCC[C@H]4N4CC(c5ccc(Cl)cn5)C4)ccc3C2=O)C(=O)N1 (mixture of isomers) [Compound 164-B, Rac-3-(5-(((cis)-2-(3-(5-chloropyridin-2-yl)azetidin-1-yl)cyclohexyl)oxy)-1-oxoisoindolin-2-yl)piperidine-2,6-dione]
14 | 56 nM | > 30000 nM | > 30000 nM |  | O=C1CCC(N2Cc3cc(OC4CCCC4N4CC(c5cncc(C(F)(F)F)c5)C4)ccc3C2=O)C(=O)N1 (stereo not shown) [Compound 154-B, 3-(1-oxo-5-((2-(3-(5-(trifluoromethyl)pyridin-3-yl)azetidin-1-yl)cyclopentyl)oxy)isoindolin-2-yl)piperidine-2,6-dione]
15 | 39 nM | > 30000 nM | > 30000 nM |  | O=C1CCC(N2Cc3cc(OC4CCCCC4N4CC(c5cncc(C(F)(F)F)c5)C4)ccc3C2=O)C(=O)N1 (stereo not shown) [Compound 178-B, 3-(1-oxo-5-((2-(3-(5-(trifluoromethyl)pyridin-3-yl)azetidin-1-yl)cyclohexyl)oxy)isoindolin-2-yl)piperidine-2,6-dione]
16 | 32 nM | > 30000 nM |  |  | O=C1CCC(N2Cc3cc(O[C@H]4CCCC[C@@H]4N4CC(c5ncc(Cl)cn5)C4)ccc3C2=O)C(=O)N1 (single isomer, unassigned) [Compound 110-B]
17 | 10 nM | > 30000 nM | > 30000 nM |  | O=C1CCC(N2Cc3cc(O[C@H]4CCCC[C@H]4N4CC(c5ccc6ccccc6n5)C4)ccc3C2=O)C(=O)N1 (stereo partly drawn) [Compound 88-B, 3-(1-oxo-5-(((1S,2R)-2-(3-(quinolin-2-yl)azetidin-1-yl)cyclohexyl)oxy)isoindolin-2-yl)piperidine-2,6-dione]
18 | 20 nM | > 30000 nM |  |  | O=C1CCC(N2Cc3cc(O[C@H]4CCCC[C@H]4N4CC(c5cncc(Cl)c5)C4)ccc3C2=O)C(=O)N1 (single isomer, unassigned) [Compound 114-B]
